# Source: PubChem BioAssay (NCI)
# Several values for one entry are separate records, joined by “and”; a condition that tells them apart may be missing. Identical values can stand only once.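 Method: 48-hour compound exposure of cells in 96-well plates, five concentrations, linear interpolation of endpoints. Here, GI50 denotes the concentration required for 50% inhibition of growth. TGI denotes the concentration required for complete inhibition of growth.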
# What was measured:
# Assay in all cases: growth of human tumour cells (NCI), 48 h
# SNB-19 CNS = system: SNB-19 CNS
# BT-549 breast = system: BT-549 breast
# NCI-H226 lung = system: NCI-H226 lung
# OVCAR-5 ovarian = system: OVCAR-5 ovarian
# HCT-116 colon = system: HCT-116 colon
# OVCAR-8 ovarian = system: OVCAR-8 ovarian
# LOX IMVI melanoma = system: LOX IMVI melanoma
# PC-3 prostate = system: PC-3 prostate
# MOLT-4 leukemia = system: MOLT-4 leukemia
# EKVX NSCLC = system: EKVX NSCLC
SMILES,GI50 (SNB-19 CNS),TGI (SNB-19 CNS),GI50 (BT-549 breast),TGI (BT-549 breast),GI50 (NCI-H226 lung),TGI (NCI-H226 lung),GI50 (OVCAR-5 ovarian),TGI (OVCAR-5 ovarian),GI50 (HCT-116 colon),TGI (HCT-116 colon),GI50 (OVCAR-8 ovarian),TGI (OVCAR-8 ovarian),GI50 (LOX IMVI melanoma),TGI (LOX IMVI melanoma),GI50 (PC-3 prostate),TGI (PC-3 prostate),GI50 (MOLT-4 leukemia),TGI (MOLT-4 leukemia),GI50 (EKVX NSCLC),TGI (EKVX NSCLC)
COc1ccc(C#Cc2ccccc2C#CCCCCO)cc1,21.4 µM,36.9 µM,21.1 µM,46.1 µM,17.3 µM,36.1 µM,18.7 µM,37.6 µM,22.5 µM,43.7 µM,18.1 µM,38.6 µM,16.9 µM,30.6 µM,21.9 µM,42.6 µM,18.3 µM,39.2 µM,23.6 µM,54 µM
COC1=CC(c2ccc[nH]2)=N/C1=C\c1[nH]c(C)c(C(=O)OCc2ccccc2)c1C,0.606 µM,29.2 µM,0.253 µM,3.46 µM,0.132 µM,1.52 µM,0.211 µM,1.99 µM,0.0321 µM,1.16 µM,0.11 µM,1.75 µM,0.0189 µM,0.042 µM,0.112 µM,20.6 µM,0.0513 µM,4.61 µM,0.206 µM,3.64 µM
CC(C)[C@](O)(c1ccc2cc(OC(F)F)c(OC(F)F)cc2c1)c1cn[nH]n1,22 µM and 15.7 µM,51 µM and 41.8 µM,15.6 µM and 13.3 µM,31.1 µM and 28.5 µM,23.1 µM and 18.9 µM,55.4 µM and 46.1 µM,21.7 µM and 22.9 µM,65.1 µM and 64.9 µM,15.2 µM and 15 µM,31.3 µM and 30.2 µM,29.6 µM and 26.4 µM,81.1 µM and 62.5 µM,15.7 µM and 14.8 µM,29.1 µM and 28.9 µM,17.5 µM and 14.2 µM,35.4 µM and 33.4 µM,30.1 µM and 17.1 µM,82.7 µM and 62 µM,14 µM and 13.6 µM,44.8 µM and 39.9 µM
COc1ccc2c(c1)C(=O)c1c-2n(CCCN)c(=O)c2ccccc12,< 0.0198 µM,0.105 µM,0.82 µM,2.63 µM,0.0441 µM,0.122 µM,0.142 µM,1.18 µM,< 0.0115 µM,0.148 µM,0.0113 µM,0.162 µM,0.0102 µM,0.0786 µM,0.206 µM,1.26 µM,< 0.01 µM,< 0.0243 µM,0.196 µM,1.83 µM
C=C(Cn1c(=O)c2ccccc2c2ccccc21)c1ccc(C(=O)Nc2ccccc2N)cc1,42.9 µM,> 100 µM,14.8 µM,97.7 µM,16.7 µM,> 100 µM,> 100 µM,> 100 µM,15.2 µM,> 100 µM,11.8 µM,> 100 µM,7.77 µM,> 100 µM,4.37 µM,> 79.4 µM,0.0415 µM,0.196 µM,> 59.8 µM,> 100 µM
C[n+]1c(/C=C\C=C\N2CCCCC2)sc2ccccc21,0.538 µM,17.2 µM,0.261 µM,3.5 µM,1.05 µM,22.4 µM,5.2 µM,> 35.2 µM,0.308 µM,> 32.1 µM,0.384 µM,5.01 µM,0.481 µM,12.9 µM,0.237 µM,2.97 µM,0.401 µM,9.42 µM,0.255 µM,10.8 µM
CO[C@H](C(=O)[C@@H](O)[C@@H](C)O)[C@@H]1Cc2cc3cc(O[C@H]4C[C@@H](O[C@H]5C[C@@H](O)[C@H](O)C(C)O5)[C@H](O)C(C)O4)c(C)c(O)c3c(O)c2C(=O)[C@H]1O[C@H]1C[C@@H](O[C@H]2C[C@@H](O[C@H]3C[C@@H](OC)[C@H](O)C(C)O3)[C@@H](O)C(C)O2)C(O)(O)C(C)O1 (stereo not given in full),0.0971 µM,> 25 µM,0.107 µM,1.64 µM,0.0545 µM,0.461 µM,0.376 µM,> 25 µM,0.035 µM,> 25 µM,0.225 µM,> 25 µM,0.0745 µM,3.68 µM,0.396 µM,> 25 µM,0.57 µM,> 25 µM,0.318 µM,> 25 µM
CC(=O)N1CCN(C2=Nc3ccccc3CO2)C1=S,> 100 µM,> 100 µM,40.1 µM,> 100 µM,> 100 µM,> 100 µM,85.8 µM,> 100 µM,89.8 µM,> 100 µM,> 100 µM,> 100 µM,52.4 µM,> 100 µM,87.6 µM,> 100 µM,41.9 µM,> 100 µM,45.1 µM,> 100 µM
Cc1c2cc[nH]c(=O)c2c(C)c2c1[nH]c1cc(OCCN3CCN(C)CC3)ccc12,0.946 µM,11.2 µM,2.71 µM,11.4 µM,0.503 µM,2.38 µM,0.944 µM,11.6 µM,0.339 µM,2.09 µM,0.457 µM,6.08 µM,0.484 µM,1.9 µM,1.03 µM,7.48 µM,0.456 µM,5.51 µM,1.11 µM,10.3 µM
CC(=O)C1=C(O)C=C2Oc3c(C(=O)/C=C/c4cc(C(F)(F)F)cc(C(F)(F)F)c4)c(O)c(C)c(O)c3[C@]2(C)C1=O,0.674 µM,4.89 µM,0.492 µM,1.8 µM,2.34 µM,5.15 µM,0.757 µM,4.46 µM,0.401 µM,1.02 µM,0.496 µM,1.91 µM,0.511 µM,1.89 µM,0.564 µM,2.3 µM,0.437 µM,15 µM,0.462 µM,6.44 µM
O=P([O-])(O)OP(=O)([O-])O.[NH-][C@H]1CCCC[C@@H]1[NH-].[OH-].[OH-].[Pt+4],21.7 µM,49.7 µM,24.3 µM,47.9 µM,23.2 µM,55 µM,26.3 µM,63.2 µM,37.1 µM,> 100 µM,22.7 µM,63.6 µM,33.2 µM,> 100 µM,25.2 µM,68.2 µM,> 100 µM,> 100 µM,25.3 µM,68.3 µM
O=[N+]([O-])c1ccc(Nc2ccccc2-c2ccccc2)c2nonc12,14.5 µM,32.3 µM,11.5 µM,28.8 µM,14 µM,40.5 µM,22.4 µM,62.9 µM,13.9 µM,31.6 µM,21.1 µM,75.9 µM,12.8 µM,26.6 µM,13.6 µM,66.2 µM,20 µM,88.2 µM,15.5 µM,64.1 µM
CCCN(CCC)CCCNCc1cc(I)cc(C)c1O,18.2 µM,40.8 µM,12.3 µM,24.8 µM,22.3 µM,66.1 µM,18.5 µM,43.7 µM,7.9 µM,20.5 µM,17.4 µM,35.7 µM,14.6 µM,27.7 µM,15.1 µM,28.4 µM,10.7 µM,23.4 µM,15.8 µM,33.7 µM
